The text below walks through data of patent US20260364174A1, “Purpurin Analogs for Use in Photodynamic Therapy” (RMW Cho Group Limited, priority 2023, published 2026).

What is called IC90 is the point of the concentration-response curve where the effect stands at 90%.

For data set [1], the system named is SKOV3 ovarian cancer cells. Nature of the data set: Therapeutic index (phototoxicity IC90 vs dark toxicity IC10). The class given is cell-based, human. As to the method: (§1) The phototoxicity and inherent cytotoxicity (i.e. “dark toxicity”) of purpurin analogues were assessed as previously using SKOV3 ovarian cancer cells. For comparative purposes, purpurin analogues were compared against chlorin e4 disodium and Talaporfin sodium, a clinically approved photosensitizer used in the photodynamic treatment of lung cancers. Phototoxicity IC90 values and dark toxicity IC10 values were calculated using a log[inhibitor]-vs normalized response dose curve with variable slope, using the formula Y=100/(1+(IC90/X)^HillSlope (phototoxicity IC90)) or Y=100/(1+(IC10/X)^HillSlope (dark toxicity IC10)).
To evaluate the therapeutic potential of purpurin analogues, the therapeutic index (TI) was calculated. TI provides a quantitative measurement to describe relative drug safety, by comparing the drug concentration required for desirable effects versus the concentration resulting in undesirable off-target toxicity. TI was calculated using phototoxicity IC90 vs dark toxicity IC10.

Data set [2] deals with SKOV3 ovarian cancer cells. Kind of data set: Inherent cytotoxicity (dark toxicity): % viable SKOV3 cells (AlamarBlue) without light. The following applies: 24 h incubation, no light. The class given is cell-based, human. The procedure:
(§2) Photosensitizers (e.g. purpurin analogue, chlorin e4 disodium (provided by Advanced Molecular Technologies, Scoresby) or Talaporfin sodium (purchased from Focus Bioscience cat #HY-16477-5MG)) were resuspended in 100% dimethylsulfoxide (DMSO) at a concentration of 5.5 mM. Samples were stored at 4 °C protected from light.
(§3) For in vitro experiments, photosensitizers (stock solution 5.5 mM in 100% DMSO) were diluted 1:100 in concentrated excipient solution (final 55 μM photosensitizer in 10% w/v Kollidon-12, 42.4% w/v polysorbate 80, 40% w/v ethanol, 1.0% DMSO). Serial dilutions were prepared in cell culture media (Dulbecco's Modified Eagle Medium/Nutrient Mixture F-12 (DMEM/F-12)) supplemented with 10% v/v Fetal Bovine Serum, 100 U/mL penicillin, 100 μg/mL streptomycin and the same excipient solution at a constant 1:55 dilution.
(§4) Human ovarian cancer cell line SKOV3 (ATCC #HTB-77) was maintained in Dulbecco's Modified Eagle Medium/Nutrient Mixture F-12 (DMEM/F-12), supplemented with […] Fetal Bovine Serum, 100 U/mL penicillin and 100 μg/mL streptomycin. Monolayer cultures were grown in a humidified incubator at 37 °C with 5% CO2. Once cells had reached ~80% confluence, spent media was replaced with media containing photosensitizer at the required concentration and cells were incubated for the desired period of time to allow photosensitizer uptake.
(§5) All data were analysed using GraphPad PRISM v8.3.1 (549) (GraphPad Software, CA). Spectral absorbance and viability measurements were normalized in the range 0-100%, with a minimum of 0 and a maximum value determined from the dataset. Dose response was determined using a sigmoidal four-point non-linear regression with variable slope, and IC10 or IC90 calculated for each compound. All data are shown as mean±SD (where appropriate).
(§6) SKOV3 cells were seeded in 96-well black wall plates (Greiner #655090) at a cell density of 5000 cells in 100 μl culture medium per well. On reaching ~60% confluence, media was aspirated and replaced with fresh media containing the relevant purpurin analogue from 0-100 μM in DMSO. Cells were incubated for a further 24 hours, allowing uptake of purpurin analogues.
To test for inherent cytotoxicity (i.e. “dark toxicity”) of the purpurin analogues, the culture media was replaced after 24 hours with fresh media containing 10% (v/v) AlamarBlue Cell Viability Reagent (ThermoFisher) and cells incubated at 37 °C for 6 hours. Untreated cells were used as a control. Fluorescence (Ex 555 nm/Em 596 nm) was measured using a CLARIOstar Plus Microplate Readear (BMG Labtech), and cytotoxicity assessed according to the % viable cells remaining. All measurements were made in quadruplicate.
as §1
Background: Alamar Blue is a resazurin reagent that responds to reducing activity.

The test system of data set [3] is SKOV3 ovarian cancer cells. Kind of data set: Phototoxicity: % viable SKOV3 cells (AlamarBlue) after incubation with photosensitizer and 680 nm LED activation. The format is cell-based. The note with it: Homo sapiens, SK-OV-3, light or radiation study, 24 h uptake, 50 mW/cm^2 for 5 mins (15 J/cm^2), viability after further 24 h. As to the method: as §2, §3, §4, §5, §6
To test for phototoxicity, cells incubated with purpurin analogues ([…] in DMSO) had culture media replaced after 24 hours (as above) and were then exposed to a 680 nm light-emitting diode (LED) panel (Invion) with optical power density at 50 mW/cm^2 for 5 mins (total 15 J/cm^2). Laser and LED exposure induce an equivalent response in relation to phototoxicity. Following activation, cells were cultured for a further 24 hours. Media was then replaced with fresh media containing AlamarBlue, and % viable cells remaining assessed as above. Controls included cells treated with purpurin analogues but not activated by laser light; cells without purpurin analogue treatment but with laser light; and untreated controls. All measurements were made in quadruplicate.
as §1

Data set [4] relates to TAA- or CCl4-induced acute liver injuries. The following applies: mice; cited from earlier work.
Data set [5] relates to indomethacin-induced gastric lesions. The following applies: rats; cited from earlier work.

For `C=Cc1c(C)c2cc3nc(c(C)c4[nH]c(cc5nc(cc1[nH]2)C(C)=C5CC)c(C)c4C(=O)O)[C@@H](CCC(=O)O)[C@@H]3C` [Chlorin e4 disodium, chlorin e4 disodium, reference compound], the “Therapeutic Index” value in data set [1] stood at 1.89. Moreover, the “Dark toxicity (IC10)” value in data set [2] is 40230 nM. For the same compound, the IC90 in data set [3] was 21300 nM.
On to `C=Cc1c(C)c2cc3nc(c(C)c4nc(cc5[nH]c(cc1[nH]2)c(C)c5CC)C(C)=C4C(=O)O)[C@@H](CCC(=O)O)[C@@H]3C` [Chlorin e4], for which the “protective effect against TAA- or CCl4-induced acute liver injuries” value in data set [4] is listed as “protective effect”. Moreover, the “protective effect against indomethacin-induced gastric lesions” value in data set [5] is reported as “protective effect against indomethacin-induced gastric lesions in rats”.
Turning to `CCCCCCN1C(=O)c2c3nc(cc4[nH]c(cc5nc(cc6[nH]c2c(c6C)C1=O)C(CC)=C5C)c(COC(=O)NCCC[P+](c1ccccc1)(c1ccccc1)c1ccccc1)c4C)[C@@H](C)[C@@H]3CCC(=O)OC` [Compound 1, purpurin 18 13-(N-(3-triphenylphosphoniumpropyl)bromide)carbamate N-hexylimide methyl ester], the “Therapeutic Index” value in data set [1] is 1731.09. The “Dark toxicity (IC10)” value in data set [2] is 79630 nM. Also, the IC90 in data set [3] was 46 nM.
For the compound `CCCCCCN1C(=O)c2c3nc(cc4[nH]c(cc5nc(cc6[nH]c2c(c6C)C1=O)C(CC)=C5C)c(COC(=O)CCCC[P+](c1ccccc1)(c1ccccc1)c1ccccc1)c4C)[C@@H](C)[C@@H]3CCC(=O)OC` [Compound 2, purpurin 18 N-hexylimide 13-(oxopentyl)triphenylphosphonium bromide], the “Therapeutic Index” value in data set [1] came out at 2875.19. For the same compound, in data set [2], the “Dark toxicity (IC10)” value is 77630 nM. The concentration for an effect of 90% (IC90) in data set [3] is 27 nM.
On to `CCC1=C(C)c2cc3[nH]c(cc4nc(c5c6[nH]c(cc1n2)c(C)c6C(=O)N(CCOCCOC)C5=O)[C@@H](CCC(=O)OC)[C@@H]4C)c(C)c3COC(=O)NCCC[P+](c1ccccc1)(c1ccccc1)c1ccccc1` [Compound 3, purpurin 18 13-(N-(3-triphenylphosphoniumpropyl)bromide)carbamate N-(2-(2-methoxyethoxy)ethyl)imide methyl ester], for which, in data set [1], the “Therapeutic Index” value came out at 498.43. For the same compound, in data set [2], the “Dark toxicity (IC10)” value came to 50840 nM. For the same compound, the IC90 in data set [3] was 102 nM.
With `C=Cc1c(C)c2cc3nc(c4c5[nH]c(cc6nc(cc1[nH]2)C(C)=C6CC)c(C)c5C(=O)N(CCC[P+](c1ccccc1)(c1ccccc1)c1ccccc1)C4=O)[C@@H](CCC(=O)N(C)CCOCCOC)[C@@H]3C` [Compound 4, purpurin 18 N-(3-triphenylphosphoniumpropylbromide)imide N-(2-(2-methoxyethoxy)ethyl)-N-methyl-amide], the “Therapeutic Index” value in data set [1] is 4991.00. For the same compound, the “Dark toxicity (IC10)” value in data set [2] came to 49910 nM. The 90% effect concentration (IC90) in data set [3] came to 10 nM.
For `C=Cc1c(C)c2cc3nc(c4c5[nH]c(cc6nc(cc1[nH]2)C(C)=C6CC)c(C)c5C(=O)OC4=O)[C@@H](CCC(=O)NCCC[P+](c1ccccc1)(c1ccccc1)c1ccccc1)[C@@H]3C` [Compound 5, purpurin 18 (N-(3-triphenylphosphoniumpropyl)bromide)amide], the “Therapeutic Index” value in data set [1] was 9976.00. In addition, in data set [2], the “Dark toxicity (IC10)” value was 49880 nM. For the same compound, the IC90 in data set [3] was 5 nM.
As for `C=Cc1c(C)c2cc3nc(c4c5[nH]c(cc6nc(cc1[nH]2)C(C)=C6CC)c(C)c5C(=O)N(CCOCCOC)C4=O)[C@@H](CCC(=O)NCCC[P+](c1ccccc1)(c1ccccc1)c1ccccc1)[C@@H]3C` [Compound 6, purpurin 18 (N-(3-triphenylphosphoniumpropyl)bromide)amide N-(2-(2-methoxyethoxy)ethyl)imide], in data set [1], the “Therapeutic Index” value amounted to 5674.44. Besides, the “Dark toxicity (IC10)” value in data set [2] came out at 51070 nM. The IC90 in data set [3] turned out to be 9 nM.
Taken in the same sequence, the figures for `CCCCCCN1C(=O)c2c3nc(cc4[nH]c(cc5nc(cc6[nH]c2c(c6C)C1=O)C(CC)=C5C)c(CN(C)C(=O)CCCC[P+](c1ccccc1)(c1ccccc1)c1ccccc1)c4C)[C@@H](C)[C@@H]3CCC(=O)OC` [Compound 7, purpurin 18 N-hexylimide 13-(N-methyl-5-triphenylphosphonium bromidepentanamide) methyl ester] were 2352.38, 49400 nM and 21 nM.
For `C=Cc1c(C)c2cc3nc(c(CC(=O)N[C@@H](CC(=O)O)C(=O)O)c4[nH]c(cc5nc(cc1[nH]2)C(C)=C5CC)c(C)c4C(=O)O)[C@@H](CCC(=O)O)[C@@H]3C` [Talaporfin sodium, reference compound], the “Therapeutic Index” value in data set [1] is reported as 0.49. The “Dark toxicity (IC10)” value in data set [2] amounted to 11100 nM.
